Starred links: 1 amine or outer side, 2 acyl side, 3 side chain; linkers in the order of their positions; H or OH if unused. Positions of bridges follow the written chain, without caps; N, C: chain ends. Non-standard residues stand in square brackets, D forms with d. Residues, ends and D or L forms follow the SMILES beside them. Groups on a side chain read outwards from the residue. Primed or numbered codes have the meaning given here. *: point of attachment. MeHseMe″ = (2S)-4-methoxy-2-(methylamino)butanoic acid (N-methyl-O-methyl-L-homoserine), COCC[C@@H](C(=O)[*:2])N(C)[*:1]; F4aao = 4-(carboxymethoxy)-L-phenylalanine, O=C([C@H](Cc1ccc(OCC(=O)[*:3])cc1)N[*:1])[*:2]; MeHseMe = N-methyl-O-methyl-L-homoserine, COCC[C@@H](C(=O)[*:2])N(C)[*:1]; Phe(4-(1-Me-pyrazol-4-yl)) = Cn1cc(-c2ccc(C[C@H](N)C(=O)O)cc2)cn1; SulfoCy5″ = sulfo-Cyanine5 hexanoyl dye as amide on the lysine NZ; TMe = O-methyl-L-threonine, CO[C@H](C)[C@H](N[*:1])C(=O)[*:2]; NMeAla(isoquinolin-7-yl) = CN[C@@H](Cc1ccc2ccncc2c1)C(=O)O; SulfoCy5(3) = sulfo-Cyanine5 hexanoyl dye on the lysine NZ; PEG12 = NCCOCCOCCOCCOCCOCCOCCOCCOCCOCCOCCOCCOCCC(=O)O; Phe(4-CH2COOH) = N[C@@H](Cc1ccc(CC(=O)O)cc1)C(=O)O; 3Pal(6-Ph) = N[C@@H](Cc1ccc(-c2ccccc2)nc1)C(=O)O; Biotin = O=C1N[C@H]2[C@H](CS[C@H]2CCCCC(=O)*)N1; Phe(4-COOH) = N[C@@H](Cc1ccc(C(=O)O)cc1)C(=O)O; Piperazinyl(4-CH2COOH) = O=C(O)CN1CCN(*)CC1; NMe2Nal = CN[C@@H](Cc1ccc2ccccc2c1)C(=O)O; X1 = CO[C@@H](O)[C@H](N[*:1])C(=O)[*:2]; AEF = NCCOc1ccc(C[C@H](N)C(=O)O)cc1; NMeI = CC[C@H](C)[C@H](NC)C(=O)O; NMeQ = CN[C@@H](CCC(N)=O)C(=O)O; NMehSer = CN[C@@H](CCO)C(=O)O; NMeK = CN[C@@H](CCCCN)C(=O)O; NMeC = CN[C@@H](CS)C(=O)O; Carboxymethyl = O=C(O)C*; NMeA = CN[C@@H](C)C(=O)O; CO = O=C([*:1])[*:2]
B1: PLB-28 (peptide)
peptide: {CH2CO}-[NMeQ][NMeQ]D[NMeQ][Phe(4-COOH)]II[AEF]([PEG12-Biotin])[NMe2Nal]G[Phe(4-(1-Me-pyrazol-4-yl))][NMeC]-NH2
modifications: thioether N-12
SMILES: CC[C@H](C)[C@@H]1NC(=O)[C@H](Cc2ccc(C(=O)O)cc2)NC(=O)[C@H](CCC(N)=O)N(C)C(=O)[C@H](CC(=O)O)NC(=O)[C@H](CCC(N)=O)N(C)C(=O)[C@H](CCC(N)=O)N(C)C(=O)CSC[C@@H](C(N)=O)N(C)C(=O)[C@H](Cc2ccc(-c3cnn(C)c3)cc2)NC(=O)CNC(=O)[C@H](Cc2ccc3ccccc3c2)N(C)C(=O)[C@H](Cc2ccc(OCCNC(=O)CCOCCOCCOCCOCCOCCOCCOCCOCCOCCOCCOCCOCCNC(=O)CCCC[C@@H]3SC[C@@H]4NC(=O)N[C@@H]43)cc2)NC(=O)[C@H]([C@@H](C)CC)NC1=O
B2: PLD-45 (peptide)
peptide: {CH2CO}-K[MeHseMe]D[NMeQ][Phe(4-COOH)][TMe]IY[NMeAla(isoquinolin-7-yl)]G[3Pal(6-Ph)][NMeC]-NH2
modifications: thioether N-12; not fully specified (residue 1); printed as MeK-MeHseMe-D-MeQ-F4COO-TMe-I-Y-MeNal27N-G-3Py6Ph-MeC-NH2
notes: SulfoCy5 conjugate
B3: PLB-60 (peptide)
peptide: KIDQFIIYFGXCG
modifications: not fully specified; MeKAc-MeI-D-MeQ-F4COO-I-I-Y-MeNal27N-G-3Py6Ph-MeC-G-PEG12c-K(biotin)-NH2 by Table 13 (Table 1 prints PEG10c and K at positions 14 and 15 of SEQ ID No. 60); thioether ring from N-terminal acetyl to MeC12
notes: Biotin on the C-terminal tail outside the ring
B4: PLB-30 (peptide)
peptide: {CH2CO}-[NMeK]([PEG12-Biotin])[NMeI]D[NMeQ][Phe(4-COOH)][TMe]I[F4aao][NMeAla(isoquinolin-7-yl)]G[3Pal(6-Ph)][NMeC]-NH2
modifications: thioether N-12
SMILES: CC[C@H](C)[C@@H]1NC(=O)[C@H]([C@@H](C)OC)NC(=O)[C@H](Cc2ccc(C(=O)O)cc2)NC(=O)[C@H](CCC(N)=O)N(C)C(=O)[C@H](CC(=O)O)NC(=O)[C@H]([C@@H](C)CC)N(C)C(=O)[C@H](CCCCNC(=O)CCOCCOCCOCCOCCOCCOCCOCCOCCOCCOCCOCCOCCNC(=O)CCCC[C@@H]2SC[C@@H]3NC(=O)N[C@@H]32)N(C)C(=O)CSC[C@@H](C(N)=O)N(C)C(=O)[C@H](Cc2ccc(-c3ccccc3)nc2)NC(=O)CNC(=O)[C@H](Cc2ccc3ccncc3c2)N(C)C(=O)[C@H](Cc2ccc(OCC(=O)O)cc2)NC1=O

Molecular target: T1, Human Glypican3-Fc (ACRO Biosystems, GP3-H5258) (human, UniProt P51654 25-559)
T1 construct: Bought fusion protein, captured in Methods B-2, B-3 and B-4; Catalogue number is printed only in Method B-2; not shown: Fc part of the bought fusion
Test: SPR (Biacore T200), Method B-3: Glypican3-Fc captured on Protein A chip, peptide as analyte
Settings: not given
Method in brief: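 Human Glypican3-Fc was captured on a Protein A chip (60 s, 10 μL/min) in HBS-P+ pH 7.4. The peptide was injected as analyte at a final 10 μM at 10 μL/min, with 120 s association and 600 s dissociation. Kinetics were fitted by single-cycle kinetics.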

| Molecule | Kd [nM] |
| --- | --- |
| B1 | 1.53 |
| B2 | 0.88 |
| {CH2CO}-[NMeK](SulfoCy5(3))[MeHseMe]D[NMeQ][Phe(4-COOH)][TMe]I[F4aao][NMeAla(isoquinolin-7-yl)]G[3Pal(6-Ph)][NMeC]-NH2 (thioether N-12) [Mod7] | 4.2 |
| {CH2CO}-[NMeK](SulfoCy5″)[NMeI]D[NMeQ][Phe(4-COOH)][TMe]I[F4aao][NMeAla(isoquinolin-7-yl)]G[3Pal(6-Ph)][NMeC]-NH2 (thioether N-12) [PLD-30] | 1.08 |
| {CH2CO}-[NMeA][MeHseMe″]D[NMeQ][Phe(4-COOH)][TMe]I[AEF][NMe2Nal]G[3Pal(6-Ph)][NMeC]-NH2 (thioether N-12; not fully specified (residue 8)) [Mod3] | 0.9 |
| B3 | 0.11 |
| B4 | 0.75 |

Molecular target: Human Glypican3-Fc (Homo sapiens, UniProt P51654)
Test: SPR binding to Glypican-3, Method B-3 (Glypican3-Fc captured on Protein A chip, 5-point dilution series)
Settings: SPR method B-3
Experimental: A Protein A sensor chip (Cytiva) was inserted into a Biacore T200 (Cytiva), priming was performed three times with a running buffer: HBS-P+, pH 7.4 (Cytiva), and equilibration was carried out at a flow rate of 30 μL/min. Glypican3-Fc was allowed to react for 60 seconds at a flow rate of 10 μL/min. After capturing human Glypican3-Fe, a peptide solution prepared to 10 mM in DMSO solution was diluted with a running buffer to a final concentration of 10 μM. After that, 5 serial dilution series (100 nM, 50 nM, 25 nM, 10 nM, 5 nM) of peptide solutions were prepared. Using the above samples, peptide kinetics for Glypican3 was obtained by SPR measurement. Kinetics evaluation of Glypican3 was performed by SPR measurements at a flow rate of 10 LL/min, setting the association time to 120 seconds and the disassociation time to 600 seconds.
The obtained data by Method B-1, Method B-2, Method B-3 and Method B-4 were analyzed by follow. Single Cycle Kinetics was used as the kinetics evaluation model, and curve fitting was performed using Biacore T200 Evaluation Software Version 3.0 (Cytiva).

| Molecule | Kd [nM] |
| --- | --- |
| CC[C@H](C)[C@@H]1NC(=O)[C@H]([C@@H](C)OC)NC(=O)[C@H](Cc2ccc(C(=O)O)cc2)NC(=O)[C@H](CCC(N)=O)N(C)C(=O)[C@H](CC(=O)O)NC(=O)[C@H]([C@@H](C)CC)N(C)C(=O)[C@H](CCCCN)N(C)C(=O)CSC[C@@H](C(N)=O)N(C)C(=O)[C@H](Cc2ccc(-c3ccccc3)nc2)NC(=O)CNC(=O)[C@H](Cc2ccc3ccncc3c2)N(C)C(=O)[C@H](Cc2ccc(OCC(=O)O)cc2)NC1=O [Conjugate 2-26] ({CH2CO}-[NMeK][NMeI]D[NMeQ][Phe(4-COOH)]T(Me)IY(Carboxymethyl)[NMeAla(isoquinolin-7-yl)]G[3Pal(6-Ph)][NMeC]-NH2; thioether N-12) | 0.3 |
| CC[C@H](C)[C@@H]1NC(=O)[C@H]([C@@H](C)OC)NC(=O)[C@H](Cc2ccc(C(=O)O)cc2)NC(=O)[C@H](CCC(N)=O)N(C)C(=O)[C@H](CC(=O)O)NC(=O)[C@H](CCOC)N(C)C(=O)[C@H](CCCCNC(=O)N2CCN(CC(=O)O)CC2)N(C)C(=O)CSC[C@@H](C(N)=O)N(C)C(=O)[C@H](Cc2ccc(-c3ccccc3)nc2)NC(=O)CNC(=O)[C@H](Cc2ccc3ccncc3c2)N(C)C(=O)[C@H](Cc2ccc(O)cc2)NC1=O [Conjugate 2-24] ({CH2CO}-[NMeK]([CO-Piperazinyl(4-CH2COOH)])[NMehSer](Me)D[NMeQ][Phe(4-COOH)]T(Me)IY[NMeAla(isoquinolin-7-yl)]G[3Pal(6-Ph)][NMeC]-NH2; thioether N-12) | 0.5 |
| CC[C@H](C)[C@@H]1NC(=O)[C@H]([C@@H](C)OC)NC(=O)[C@H](Cc2ccc(C(=O)O)cc2)NC(=O)[C@H](CCC(N)=O)N(C)C(=O)[C@H](CC(=O)O)NC(=O)[C@H]([C@@H](C)CC)N(C)C(=O)[C@H](CCCCN)N(C)C(=O)CSC[C@@H](C(N)=O)N(C)C(=O)[C@H](Cc2ccc(-c3ccccc3)nc2)NC(=O)CNC(=O)[C@H](Cc2ccc3ccncc3c2)N(C)C(=O)[C@H](Cc2ccc(O)cc2)NC1=O [Conjugate 2-60] ({CH2CO}-[NMeK][NMeI]D[NMeQ][Phe(4-COOH)]T(Me)IY[NMeAla(isoquinolin-7-yl)]G[3Pal(6-Ph)][NMeC]-NH2; thioether N-12) | 0.23 |
| CC[C@H](C)[C@@H]1NC(=O)[C@H](Cc2ccc(C(=O)O)cc2)NC(=O)[C@H](CCC(N)=O)N(C)C(=O)[C@H](CC(=O)O)NC(=O)[C@H](CCOC)N(C)C(=O)[C@H](CCCCN)N(C)C(=O)CSC[C@@H](C(N)=O)N(C)C(=O)[C@H](Cc2ccc(-c3ccccc3)nc2)NC(=O)CNC(=O)[C@H](Cc2ccc3ccccc3c2)N(C)C(=O)[C@H](Cc2ccc(CC(=O)O)cc2)NC(=O)[C@H]([C@@H](C)CC)NC1=O [Conjugate 2-47] ({CH2CO}-[NMeK][NMehSer](Me)D[NMeQ][Phe(4-COOH)]II[Phe(4-CH2COOH)][NMe2Nal]G[3Pal(6-Ph)][NMeC]-NH2; thioether N-12) | 0.2 |
| CC[C@H](C)[C@@H]1NC(=O)[C@H]([C@@H](C)OC)NC(=O)[C@H](Cc2ccc(C(=O)O)cc2)NC(=O)[C@H](CNC(=O)N2CCN(CC(=O)O)CC2)N(C)C(=O)[C@H](CC(=O)O)NC(=O)[C@H](CCOC)N(C)C(=O)[C@H](CCCCNC(=O)N2CCN(CC(=O)O)CC2)N(C)C(=O)SCC[C@@H](C(N)=O)N(C)C(=O)[C@H](Cc2ccc(-c3ccccc3)nc2)NC(=O)CNC(=O)[C@H](Cc2ccc3ccncc3c2)N(C)C(=O)[C@H](Cc2ccc(OCCN)cc2)NC1=O [Conjugate 2-38] | 1.8 |
| CC[C@H](C)[C@@H]1NC(=O)[C@H](Cc2ccc(C(=O)O)cc2)NC(=O)[C@H](CCC(N)=O)N(C)C(=O)[C@H](CC(=O)O)NC(=O)[C@H]([C@@H](C)CC)N(C)C(=O)[C@H](CCCCNC(C)=O)N(C)C(=O)CSC[C@@H](C(N)=O)N(C)C(=O)[C@H](Cc2ccc(-c3ccccc3)nc2)NC(=O)CNC(=O)[C@H](Cc2ccc3ccncc3c2)N(C)C(=O)[C@H](Cc2ccc(O)cc2)NC(=O)[C@H]([C@@H](C)CC)NC1=O [Conjugate 2-4] ({CH2CO}-[NMeK](Ac)[NMeI]D[NMeQ][Phe(4-COOH)]IIY[NMeAla(isoquinolin-7-yl)]G[3Pal(6-Ph)][NMeC]-NH2; thioether N-12) | 0.3 |
| CC[C@H](C)[C@@H]1NC(=O)[C@H]([C@H](O)OC)NC(=O)[C@H](Cc2ccc(C(=O)O)cc2)NC(=O)[C@H](CCC(N)=O)N(C)C(=O)[C@H](CC(=O)O)NC(=O)[C@H](CCOC)N(C)C(=O)[C@H](CCCCNC(=O)N2CCN(CC(=O)O)CC2)N(C)C(=O)CSC[C@@H](C(N)=O)N(C)C(=O)[C@H](Cc2ccc(-c3ccccc3)nc2)NC(=O)CNC(=O)[C@H](Cc2ccc3ccncc3c2)N(C)C(=O)[C@H](Cc2ccc(O)cc2)NC1=O [Conjugate 2-25] ({CH2CO}-[NMeK]([CO-Piperazinyl(4-CH2COOH)])[NMehSer](Me)D[NMeQ][Phe(4-COOH)][X1]IY[NMeAla(isoquinolin-7-yl)]G[3Pal(6-Ph)][NMeC]-NH2; thioether N-12) | 6.6 |
| CC[C@H](C)[C@@H]1NC(=O)[C@H]([C@@H](C)OC)NC(=O)[C@H](Cc2ccc(C(=O)O)cc2)NC(=O)[C@H](CCC(N)=O)N(C)C(=O)[C@H](CC(=O)O)NC(=O)[C@H](CCOC)N(C)C(=O)[C@H](CCCCN)N(C)C(=O)CSC[C@@H](C(N)=O)N(C)C(=O)[C@H](Cc2ccc(-c3ccccc3)nc2)NC(=O)CNC(=O)[C@H](Cc2ccc3ccncc3c2)N(C)C(=O)[C@H](Cc2ccc(O)cc2)NC1=O [Conjugate 1] ({CH2CO}-[NMeK][NMehSer](Me)D[NMeQ][Phe(4-COOH)]T(Me)IY[NMeAla(isoquinolin-7-yl)]G[3Pal(6-Ph)][NMeC]-NH2; thioether N-12) | 0.2 |

Reference: patent publication US20260241049A1, “Radiopharmaceutical Compositions Targeting Glypican-3 and Uses Thereof” (RayzeBio, Inc., priority 2023, published 2026)
